This note sets out measurements from paper PMC7922706, “New Inhibitory Effects of Cilnidipine on Microglial P2X7 Receptors and IL-1β Release: An Involvement in its Alleviating Effect on Neuropathic Pain” (Cells, 2021).

Broadly, the IC50 is the concentration that gives 50% inhibition.

This assay deals with T1, rat P2X7R (Rattus norvegicus, UniProt Q64663).
T1 construct: gene P2rx7; rP2X7R (NM_019256) stably expressed in 1321N1 cells
T1 sequence (Q64663 1-595): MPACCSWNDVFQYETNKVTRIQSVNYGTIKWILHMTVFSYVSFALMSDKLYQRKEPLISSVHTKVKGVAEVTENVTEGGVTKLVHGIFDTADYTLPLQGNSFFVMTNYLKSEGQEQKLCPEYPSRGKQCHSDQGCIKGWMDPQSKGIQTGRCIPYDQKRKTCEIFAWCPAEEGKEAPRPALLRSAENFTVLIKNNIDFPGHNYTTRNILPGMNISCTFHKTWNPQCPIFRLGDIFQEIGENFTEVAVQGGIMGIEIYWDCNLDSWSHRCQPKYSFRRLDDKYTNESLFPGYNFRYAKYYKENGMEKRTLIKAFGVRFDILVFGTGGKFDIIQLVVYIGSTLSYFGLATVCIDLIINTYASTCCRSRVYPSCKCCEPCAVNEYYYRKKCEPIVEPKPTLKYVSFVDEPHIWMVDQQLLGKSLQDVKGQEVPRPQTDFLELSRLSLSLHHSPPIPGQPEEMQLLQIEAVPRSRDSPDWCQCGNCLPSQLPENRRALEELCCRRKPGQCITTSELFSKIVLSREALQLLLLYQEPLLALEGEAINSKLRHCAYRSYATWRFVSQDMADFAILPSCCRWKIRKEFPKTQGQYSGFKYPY
As to the kind of experiment: single-cell Fura-2 Ca2+ imaging, BzATP-stimulated rP2X7R-1321N1 cells. In kind it is cell-based.

Like-named read-outs stand apart in the source and are kept apart here.

For the compound `COc1cc(C(=O)NS(=O)(=O)c2ccccc2C)ccc1Cc1cn(C)c2ccc(NC(=O)OC3CCCC3)cc12` [ZFK, zafirlukast], the IC50 (read-out: IC50) was determined as 220 nM.

Turning to `COCCOC(=O)C1=C(C)NC(C)=C(C(=O)OC/C=C/c2ccccc2)C1c1cccc([N+](=O)[O-])c1` (racemic) [CNP, 2-Methoxyethyl(E)-3-phenyl-2-propen-1-yl(±)-1,4-dihydro-2,6-dimethyl-4-(3-nitrophenyl)pyridine-3,5-dicarboxylate], the IC50 (read-out: IC50) was 130 nM.

Compound `CCc1oc2ccccc2c1C(=O)c1cc(Br)c(O)c(Br)c1` [BBR, benzbromarone] gave an IC50 of 250 nM.
